Laboratory results as given in patent publication US12441691B2 (Cytokinetics, Inc., priority 2020, dated 2025).

system: rabbit skeletal myofibrils (fast skeletal myofibrils); experiment: Activation of fast skeletal myofibrils (PUMA assay, AC1.4); assay type: biochemical; details: calcium at pCa25, AC1.4 = concentration at which the compound increased the enzymatic activity
Outline: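 In 12 mM PIPES pH 6.8 with 2 mM MgCl2 and 1 mM DTT, Triton-washed rabbit skeletal myofibrils were run at the pCa25 calcium level. Myosin-made ADP was recycled through a PK/LDH coupled system; NADH loss read at 340 nm.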

Compound | AC1.4 [µM]
CC[C@H](C)[C@H]1C(=O)Nc2ccccc2CN1C(=O)c1c[nH]nn1 [Compound 153, (S)-3-((S)-sec-butyl)-4-(1H-1,2,3-triazole-4-carbonyl)-1,3,4,5-tetrahydro-2H-benzo[e][1,4]diazepin-2-one] | 0.09
CC[C@H](C)[C@H]1C(=O)Nc2ccccc2CN1C(=O)c1cccc(=O)n1C [Compound 154, (S)-3-((S)-sec-butyl)-4-(1-methyl-6-oxo-1,6-dihydropyridine-2-carbonyl)-1,3,4,5-tetrahydro-2H-benzo[e][1,4]diazepin-2-one] | 0.65
CC[C@H](C)[C@H]1C(=O)Nc2ccccc2CN1C(=O)c1ccc(=O)[nH]c1 [Compound 155, (S)-3-((S)-sec-butyl)-4-(6-oxo-1,6-dihydropyridine-3-carbonyl)-1,3,4,5-tetrahydro-2H-benzo[e][1,4]diazepin-2-one] | 0.54
CC[C@H](C)[C@H]1C(=O)Nc2ccccc2CN1C(=O)c1ccc(=O)n(C)c1 [Compound 156, (S)-3-((S)-sec-butyl)-4-(1-methyl-6-oxo-1,6-dihydropyridine-3-carbonyl)-1,3,4,5-tetrahydro-2H-benzo[e][1,4]diazepin-2-one] | 0.90
CC[C@H](C)[C@H]1C(=O)Nc2ccccc2CN1C(=O)c1cnn(C)n1 [Compound 157, (S)-3-((S)-sec-butyl)-4-(2-methyl-2H-1,2,3-triazole-4-carbonyl)-1,3,4,5-tetrahydro-2H-benzo[e][1,4]diazepin-2-one] | 0.11
CC[C@H](C)[C@H]1C(=O)Nc2ccccc2CN1C(=O)c1ccc(C(N)=O)nc1 [Compound 158, 5-((S)-3-((S)-sec-butyl)-2-oxo-2,3,4,5-tetrahydro-1H-benzo[e][1,4]diazepine-4-carbonyl)picolinamide] | 0.44
CC[C@H](C)[C@H]1C(=O)Nc2ccccc2CN1C(=O)c1cnnn1C [Compound 159, (S)-3-((S)-sec-butyl)-4-(1-methyl-1H-1,2,3-triazole-5-carbonyl)-1,3,4,5-tetrahydro-2H-benzo[e][1,4]diazepin-2-one] | 0.59
CC[C@H](C)[C@H]1C(=O)Nc2ccccc2CN1C(=O)c1ncc[nH]1 [Compound 160, (S)-3-((S)-sec-butyl)-4-(1H-imidazole-2-carbonyl)-1,3,4,5-tetrahydro-2H-benzo[e][1,4]diazepin-2-one] | 0.16
CC[C@H](C)[C@H]1C(=O)Nc2ccccc2CN1C(=O)C1CCC(=O)N1 (stereo partly drawn) [Compound 161, (3S)-3-((S)-sec-butyl)-4-(5-oxopyrrolidine-2-carbonyl)-1,3,4,5-tetrahydro-2H-benzo[e][1,4]diazepin-2-one] | 2.25
CC[C@H](C)[C@H]1C(=O)Nc2ccccc2CN1C(=O)c1cncc(C(N)=O)c1 [Compound 162, 5-((S)-3-((S)-sec-butyl)-2-oxo-2,3,4,5-tetrahydro-1H-benzo[e][1,4]diazepine-4-carbonyl)nicotinamide] | 0.11
CCOC(=O)c1ccc(C(=O)N2Cc3ccccc3NC(=O)[C@@H]2[C@@H](C)CC)[nH]1 [Compound 163, ethyl 5-((S)-3-((S)-sec-butyl)-2-oxo-2,3,4,5-tetrahydro-1H-benzo[e][1,4]diazepine-4-carbonyl)-1H-pyrrole-2-carboxylate] | 0.05
CC[C@H](C)[C@H]1C(=O)Nc2ccccc2CN1C(=O)c1cnn(C[C@@H](C)O)c1 [Compound 164, (S)-3-((S)-sec-butyl)-4-(1-((R)-2-hydroxypropyl)-1H-pyrazole-4-carbonyl)-1,3,4,5-tetrahydro-2H-benzo[e][1,4]diazepin-2-one] | 0.10
CC[C@H](C)[C@H]1C(=O)Nc2ccccc2CN1C(=O)c1ccc2c(c1)NC(=O)C2 [Compound 165, (S)-3-((S)-sec-butyl)-4-(2-oxoindoline-6-carbonyl)-1,3,4,5-tetrahydro-2H-benzo[e][1,4]diazepin-2-one] | 0.14
CC[C@H](C)[C@H]1C(=O)Nc2ccccc2CN1C(=O)c1ccc(C(=O)O)[nH]1 [Compound 166, 5-((S)-3-((S)-sec-butyl)-2-oxo-2,3,4,5-tetrahydro-1H-benzo[e][1,4]diazepine-4-carbonyl)-1H-pyrrole-2-carboxylic acid] | 0.45
CC[C@H](C)[C@H]1C(=O)Nc2ccccc2CN1C(=O)c1ccc2c(c1)CC(=O)N2 [Compound 167, (S)-3-((S)-sec-butyl)-4-(2-oxoindoline-5-carbonyl)-1,3,4,5-tetrahydro-2H-benzo[e][1,4]diazepin-2-one] | 0.05
CC[C@H](C)[C@H]1C(=O)Nc2ccccc2CN1C(=O)c1cc2nc(C(N)=O)ccc2[nH]1 [Compound 168, 2-((S)-3-((S)-sec-butyl)-2-oxo-2,3,4,5-tetrahydro-1H-benzo[e][1,4]diazepine-4-carbonyl)-1H-pyrrolo[3,2-b]pyridine-5-carboxamide] | 0.04

Compound | AC1.4 [µM]
CC[C@H](C)[C@H]1C(=O)Nc2ccccc2CN1C(=O)c1ccc2[nH]c(C(N)=O)cc2n1 [Compound 169, 5-((S)-3-((S)-sec-butyl)-2-oxo-2,3,4,5-tetrahydro-1H-benzo[e][1,4]diazepine-4-carbonyl)-1H-pyrrolo[3,2-b]pyridine-2-carboxamide] | 0.06
CC[C@H](C)[C@H]1C(=O)Nc2ccccc2CN1C(=O)c1ccc(=O)n(CCO)c1 [Compound 170, (S)-3-((S)-sec-butyl)-4-(1-(2-hydroxyethyl)-6-oxo-1,6-dihydropyridine-3-carbonyl)-1,3,4,5-tetrahydro-2H-benzo[e][1,4]diazepin-2-one] | 0.79
CC[C@H](C)[C@H]1C(=O)Nc2ccccc2CN1C(=O)c1nc2cccnc2[nH]1 [Compound 171, (S)-3-((S)-sec-butyl)-4-(3H-imidazo[4,5-b]pyridine-2-carbonyl)-1,3,4,5-tetrahydro-2H-benzo[e][1,4]diazepin-2-one] | 0.03
CC[C@H](C)[C@H]1C(=O)Nc2ccccc2CN1C(=O)c1ccn(C)c(=O)c1 [Compound 172, (S)-3-((S)-sec-butyl)-4-(1-methyl-2-oxo-1,2-dihydropyridine-4-carbonyl)-1,3,4,5-tetrahydro-2H-benzo[e][1,4]diazepin-2-one] | 0.63
CC[C@H](C)[C@H]1C(=O)Nc2ccccc2CN1C(=O)c1cnn(CC(N)=O)c1 [Compound 173, 2-(4-((S)-3-((S)-sec-butyl)-2-oxo-2,3,4,5-tetrahydro-1H-benzo[e][1,4]diazepine-4-carbonyl)-1H-pyrazol-1-yl)acetamide] | 0.22
CC[C@H](C)[C@H]1C(=O)Nc2ccccc2CN1C(=O)c1ccc(C(=O)NCCO)[nH]1 [Compound 174, 5-((S)-3-((S)-sec-butyl)-2-oxo-2,3,4,5-tetrahydro-1H-benzo[e][1,4]diazepine-4-carbonyl)-N-(2-hydroxyethyl)-1H-pyrrole-2-carboxamide] | 0.03
CC[C@H](C)[C@H]1C(=O)Nc2ccccc2CN1C(=O)c1ccc(C(=O)NCC(O)CO)[nH]1 (stereo partly drawn) [Compound 175, 5-((S)-3-((S)-sec-butyl)-2-oxo-2,3,4,5-tetrahydro-1H-benzo[e][1,4]diazepine-4-carbonyl)-N-(2,3-dihydroxypropyl)-1H-pyrrole-2-carboxamide] | 0.04
CC[C@H](C)[C@H]1C(=O)Nc2ccccc2CN1C(=O)c1cc2c(=O)[nH]ncc2[nH]1 [Compound 176, (S)-3-((S)-sec-butyl)-4-(4-oxo-4,5-dihydro-1H-pyrrolo[2,3-d]pyridazine-2-carbonyl)-1,3,4,5-tetrahydro-2H-benzo[e][1,4]diazepin-2-one] | 0.05
CC[C@H](C)[C@H]1C(=O)Nc2ccccc2CN1C(=O)[C@@H]1CCCN1 [Compound 177, (S)-4-(L-prolyl)-3-((S)-sec-butyl)-1,3,4,5-tetrahydro-2H-benzo[e][1,4]diazepin-2-one] | 2.64
CC[C@H](C)[C@H]1C(=O)Nc2ccccc2CN1C(=O)[C@H]1CCCN1 [Compound 178, (S)-4-(D-prolyl)-3-((S)-sec-butyl)-1,3,4,5-tetrahydro-2H-benzo[e][1,4]diazepin-2-one] | 3.37
CC[C@H](C)[C@H]1C(=O)Nc2ccccc2CN1C(=O)c1cn(C)nc1CCO [Compound 179, (S)-3-((S)-sec-butyl)-4-(3-(2-hydroxyethyl)-1-methyl-1H-pyrazole-4-carbonyl)-1,3,4,5-tetrahydro-2H-benzo[e][1,4]diazepin-2-one] | 2.27
CC[C@H](C)[C@H]1C(=O)Nc2ccccc2CN1C(=O)c1ccc(C(=O)N2CC(O)C2)[nH]1 [Compound 180, (S)-3-((S)-sec-butyl)-4-(5-(3-hydroxyazetidine-1-carbonyl)-1H-pyrrole-2-carbonyl)-1,3,4,5-tetrahydro-2H-benzo[e][1,4]diazepin-2-one] | 0.10
CC[C@H](C)[C@H]1C(=O)Nc2ccccc2CN1C(=O)c1cc2nccnc2[nH]1 [Compound 181, (S)-3-((S)-sec-butyl)-4-(5H-pyrrolo[2,3-b]pyrazine-6-carbonyl)-1,3,4,5-tetrahydro-2H-benzo[e][1,4]diazepin-2-one] | 0.04
CC[C@H](C)[C@H]1C(=O)Nc2ccccc2CN1C(=O)c1cnn(CCO)c1N [Compound 182, (S)-4-(5-amino-1-(2-hydroxyethyl)-1H-pyrazole-4-carbonyl)-3-((S)-sec-butyl)-1,3,4,5-tetrahydro-2H-benzo[e][1,4]diazepin-2-one] | 0.07
CC[C@H](C)[C@H]1C(=O)Nc2ccccc2CN1C(=O)CCN1CC[C@H](O)C1 [Compound 184, (S)-3-((S)-sec-butyl)-4-(3-((S)-3-hydroxypyrrolidin-1-yl)propanoyl)-1,3,4,5-tetrahydro-2H-benzo[e][1,4]diazepin-2-one] | 0.55
CC[C@H](C)[C@H]1C(=O)Nc2ccccc2CN1C(=O)CCN1CC[C@@H](O)C1 [Compound 185, (S)-3-((S)-sec-butyl)-4-(3-((R)-3-hydroxypyrrolidin-1-yl)propanoyl)-1,3,4,5-tetrahydro-2H-benzo[e][1,4]diazepin-2-one] | 0.92
